The values that follow come from patent publication US11186564B2, “Dual NAV1.2/5HT2a inhibitors for treating CNS disorders” (Sunovion Pharmaceuticals Inc., priority 2016, dated 2021).

Assay [1] addresses T1, recombinant human serotonin receptor 5-HT2A (Homo sapiens, UniProt P28223).
T1 construct: expressed in transfected cells; method B: loaded with Ca2+ dye
Nature of the assay: 5-HT2A antagonist Ca2+ assay in CHO-K1 cells (method A aequorin luminescence / method B FLIPR fluorescence). Format: cell-based. As to conditions: antagonist mode vs EC80 of reference agonist, method A or B, read-out: 5HT2A IC50. Put shortly:
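Method A: CHO-K1 cells co-expressing human 5-HT2A and mitochondrial apoaequorin were given reference agonist at EC80 15 min after compound, with luminescence read. Method B: dye-loaded 5-HT2A CHO-K1 cells were pretreated with compound, then given serotonin at EC80, with FLIPR fluorescence read. IC50s came from nonlinear fits of percent inhibition.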

For assay [2], the target named is human sodium channel NaV1.2 (Homo sapiens, UniProt Q99250). Nature of the assay: NaV1.2 inhibition, automated patch-clamp (Q-Patch HTX), slow inactivated state (state C). As to conditions: hNaV1.2 CHO cells, slow inactivated state; for inhibition at 1 µM: 1 μM compound, read-out: NaV1.2 (% inh), 1 μM; for IC50: read-out: NaV1.2 IC50; for inhibition at 10 µM: 10 μM compound, read-out: NaV1.2 (% inh), 10 μM. It counts as cell-based. Put shortly: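 CHO K-1 cells stably expressing human NaV1.2, whole-cell automated patch clamp, holding −100 mV; slow-inactivated state (state C) read at a 5 ms step to 0 mV after 10 s at −50 mV and 15 ms at −90 mV. Percent inhibition vs vehicle; IC50 by nonlinear least-squares fit.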
Chain of human sodium channel NaV1.2 (Q99250 whole entry): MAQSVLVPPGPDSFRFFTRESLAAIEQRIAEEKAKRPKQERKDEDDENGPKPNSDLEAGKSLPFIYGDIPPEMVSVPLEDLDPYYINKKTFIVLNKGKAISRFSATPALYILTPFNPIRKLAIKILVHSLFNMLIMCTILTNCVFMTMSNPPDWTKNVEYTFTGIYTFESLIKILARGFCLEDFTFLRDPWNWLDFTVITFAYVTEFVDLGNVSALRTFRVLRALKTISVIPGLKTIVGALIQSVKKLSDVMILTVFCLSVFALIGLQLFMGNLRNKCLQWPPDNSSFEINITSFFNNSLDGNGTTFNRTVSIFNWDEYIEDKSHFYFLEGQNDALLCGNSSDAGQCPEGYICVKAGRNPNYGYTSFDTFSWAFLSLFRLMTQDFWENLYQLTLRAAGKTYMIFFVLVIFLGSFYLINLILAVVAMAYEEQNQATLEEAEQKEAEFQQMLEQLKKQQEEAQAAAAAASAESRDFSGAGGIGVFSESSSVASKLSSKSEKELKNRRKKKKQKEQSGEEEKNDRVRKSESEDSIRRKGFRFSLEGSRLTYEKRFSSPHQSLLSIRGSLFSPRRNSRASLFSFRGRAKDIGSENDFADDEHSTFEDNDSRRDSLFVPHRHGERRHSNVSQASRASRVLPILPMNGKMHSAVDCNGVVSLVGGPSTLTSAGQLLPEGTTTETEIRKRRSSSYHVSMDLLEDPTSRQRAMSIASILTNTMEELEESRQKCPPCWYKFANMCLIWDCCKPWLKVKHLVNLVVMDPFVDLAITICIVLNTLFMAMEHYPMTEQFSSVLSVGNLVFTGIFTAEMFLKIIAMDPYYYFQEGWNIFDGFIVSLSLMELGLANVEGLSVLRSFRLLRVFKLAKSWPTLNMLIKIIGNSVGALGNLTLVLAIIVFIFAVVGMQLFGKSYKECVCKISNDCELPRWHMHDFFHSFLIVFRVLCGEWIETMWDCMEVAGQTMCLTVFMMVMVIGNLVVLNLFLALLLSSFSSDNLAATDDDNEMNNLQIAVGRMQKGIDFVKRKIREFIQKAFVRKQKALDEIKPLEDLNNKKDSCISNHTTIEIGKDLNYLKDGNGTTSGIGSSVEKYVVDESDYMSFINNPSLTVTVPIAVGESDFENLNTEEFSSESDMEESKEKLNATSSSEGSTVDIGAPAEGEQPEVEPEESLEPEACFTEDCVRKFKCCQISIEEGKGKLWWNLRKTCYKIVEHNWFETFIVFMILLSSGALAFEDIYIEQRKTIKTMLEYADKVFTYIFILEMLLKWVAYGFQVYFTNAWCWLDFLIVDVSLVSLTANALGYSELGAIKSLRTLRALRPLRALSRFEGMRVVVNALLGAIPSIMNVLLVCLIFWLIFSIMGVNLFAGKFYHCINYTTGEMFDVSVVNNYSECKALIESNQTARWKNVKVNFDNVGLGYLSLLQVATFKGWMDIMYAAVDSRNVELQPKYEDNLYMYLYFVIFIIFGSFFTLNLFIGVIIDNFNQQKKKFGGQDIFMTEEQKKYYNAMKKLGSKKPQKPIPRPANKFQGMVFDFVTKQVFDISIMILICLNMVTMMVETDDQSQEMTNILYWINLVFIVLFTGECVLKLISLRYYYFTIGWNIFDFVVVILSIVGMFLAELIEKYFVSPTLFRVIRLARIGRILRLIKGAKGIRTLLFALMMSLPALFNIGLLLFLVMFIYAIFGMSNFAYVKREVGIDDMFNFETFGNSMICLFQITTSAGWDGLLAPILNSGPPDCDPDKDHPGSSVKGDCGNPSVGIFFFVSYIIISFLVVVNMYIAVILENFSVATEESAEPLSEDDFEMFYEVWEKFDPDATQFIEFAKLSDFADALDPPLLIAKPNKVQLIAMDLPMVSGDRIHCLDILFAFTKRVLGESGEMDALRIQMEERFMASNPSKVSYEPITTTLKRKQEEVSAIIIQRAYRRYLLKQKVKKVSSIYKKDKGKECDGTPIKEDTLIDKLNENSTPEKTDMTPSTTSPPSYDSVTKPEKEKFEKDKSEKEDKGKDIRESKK

T1 sequence (P28223 whole entry): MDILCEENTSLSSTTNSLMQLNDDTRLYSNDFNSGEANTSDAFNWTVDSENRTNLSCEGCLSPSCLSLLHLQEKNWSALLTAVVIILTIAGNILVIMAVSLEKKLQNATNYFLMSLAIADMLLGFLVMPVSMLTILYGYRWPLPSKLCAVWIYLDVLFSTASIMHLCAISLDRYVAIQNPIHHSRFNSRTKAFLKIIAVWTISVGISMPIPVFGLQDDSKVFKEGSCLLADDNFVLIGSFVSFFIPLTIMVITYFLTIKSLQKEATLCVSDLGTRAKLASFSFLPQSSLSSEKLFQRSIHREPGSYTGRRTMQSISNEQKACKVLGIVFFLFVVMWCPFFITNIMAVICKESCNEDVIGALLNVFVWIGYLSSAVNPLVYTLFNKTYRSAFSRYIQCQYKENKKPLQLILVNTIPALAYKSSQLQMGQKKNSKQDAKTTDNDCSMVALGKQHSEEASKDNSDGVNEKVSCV

Turning to `Fc1ccc(OC2CCN(CCC3CCc4ncccc43)CC2)cc1` (centres unmarked) [Example 172, 5-(2-(4-(4-fluorophenoxy)piperidin-1-yl)ethyl)-6,7-dihydro-5H-cyclopenta[b]pyridine], the IC50 in assay [1] is 120 nM. In addition, the inhibition at 1 µM in assay [2] stood at 34%.

On to `OC(COC1CCCCC1)CN1CCCC2(CCN(c3ccccc3)C2)C1` (centres unmarked) [Example 356, 1-(cyclohexyloxy)-3-(2-phenyl-2,7-diazaspiro[4.5]decan-7-yl)propan-2-ol], for which the IC50 in assay [1] was 250 nM; in assay [2], 610 nM.

As for `O[C@H](CO[C@@H]1CCc2ccccc21)CN1CC[C@@H](Oc2ccc(F)cc2)C1` [Example 46, (S)-1-(((R)-2,3-dihydro-1H-inden-1-yl)oxy)-3-((R)-3-(4-fluorophenoxy)pyrrolidin-1-yl)propan-2-ol], in assay [1], the IC50 worked out at 30 nM. The inhibition at 1 µM in assay [2] stood at 41%.

As for `c1ccc2c(c1)CCC1(CCN(CC3COc4ccccc43)CC1)O2` (centres unmarked) [Example 409], the figures for the IC50 in assay [1] and in assay [2] were 930 nM and 2830 nM, respectively.

Consider `COc1ccccc1CN1CCC2(CCN(CC3CCc4ccccc43)C2)C1` (centres unmarked) [Example 347, 2-((2,3-dihydro-1H-inden-1-yl)methyl)-7-(2-methoxybenzyl)-2,7-diazaspiro[4.4]nonane], for which the IC50 was found to be 30 nM in assay [1] and 3190 nM in assay [2].

With `COc1ccccc1OC1CCN(CC2Cc3ccccc3C2)CC1` [Example 136, 1-((2,3-dihydro-1H-inden-2-yl)methyl)-4-(2-methoxyphenoxy)piperidine], in assay [1], the IC50 came to 60 nM. Further, the inhibition at 1 µM in assay [2] was 50%.

`c1ccc2c(c1)CCC1(CCN(CCC3CCc4ccccc43)CC1)O2` (centres unmarked) [Example 418, 1′-(2-(2,3-dihydro-1H-inden-1-yl)ethyl)spiro[chromane-2,4′-piperidine]]: the IC50 in assay [1] amounted to 160 nM; in assay [2], 1130 nM.

Consider `COc1ccc2c(c1)C(CN1CCC(OCc3ccccc3C)CC1)CC2` (centres unmarked) [Example 242, 1-((6-methoxy-2,3-dihydro-1H-inden-1-yl)methyl)-4-((2-methylbenzyl)oxy)piperidine], for which the IC50 came out at 90 nM in assay [1] and 230 nM in assay [2].

`OC(COc1ccccc1)CN1CCC2(CCc3ccccc3O2)CC1` (centres unmarked) [Example 439, 1-phenoxy-3-(spiro[chromane-2,4′-piperidin]-1′-yl)propan-2-ol]: the IC50 turned out to be 10 nM in assay [1] and 500 nM in assay [2].

With `c1ccc(O[C@@H]2COC3(CCN(C[C@H]4CCc5ccccc54)CC3)C2)cc1` (single isomer, unassigned) [Compound 384], the IC50 in assay [1] was 300 nM; in assay [2] it was 290 nM.

As for `OC(CO[C@H]1CCc2ccccc21)CN1CC[C@@H](Oc2ccc(F)cc2)C1` (stereo partly drawn) [Example 42, 1-(((S)-2,3-dihydro-1H-inden-1-yl)oxy)-3-((R)-3-(4-fluorophenoxy)pyrrolidin-1-yl)propan-2-ol], the IC50 in assay [1] worked out at 830 nM; in assay [2], 750 nM.

Regarding `COc1cccc(OCCN2CCC(Oc3ccccc3)CC2)c1` [Example 224, 1-(2-(3-methoxyphenoxy)ethyl)-4-phenoxypiperidine], the IC50 in assay [1] amounted to 170 nM. For the same molecule, the inhibition at 10 µM in assay [2] was 81%.

As for `Fc1ccc(O[C@H]2CCN(CC3CCc4cccnc43)C2)cc1` (stereo partly drawn) [Example 8, 7-(((S)-3-(4-fluorophenoxy)pyrrolidin-1-yl)methyl)-6,7-dihydro-5H-cyclopenta[b]pyridine], the IC50 turned out to be 980 nM in assay [1] and 7450 nM in assay [2].

With `O[C@@H](CO[C@H]1CCCc2ccccc21)CN1CCN(Cc2ccccc2)CC1` [Example 85, (R)-1-(4-benzylpiperazin-1-yl)-3-(((S)-1,2,3,4-tetrahydronaphthalen-1-yl)oxy)propan-2-ol], the IC50 in assay [1] is > 11900 nM. Besides, the inhibition at 1 µM in assay [2] turned out to be 24%.

On to `Fc1ccc(O[C@H]2CCN(CC3COCc4ccccc43)C2)cc1` (stereo partly drawn) [Example 12, (3S)-3-(4-fluorophenoxy)-1-(isochroman-4-ylmethyl)pyrrolidine], for which the values for the IC50 in assay [1] and in assay [2] were 300 nM and 3230 nM, respectively.

As to `c1ccc(OC2COC3(CCN(CC4CCc5ccccc54)CC3)C2)cc1` (single isomer, unassigned) [Example 380, 8-((2,3-dihydro-1H-inden-1-yl)methyl)-3-phenoxy-1-oxa-8-azaspiro[4.5]decane], the figures for the half-inhibitory concentration (IC50) in assay [1] and in assay [2] were 150 nM and 120 nM, respectively.

`O=C1c2ccccc2CCN1CCN1C[C@@H]2CC[C@H]1CN2c1ccccc1` [Example 316, 2-(2-((1S,4S)-5-phenyl-2,5-diazabicyclo[2.2.2]octan-2-yl)ethyl)-3,4-dihydroisoquinolin-1(2H)-one]: the IC50 worked out at 3170 nM in assay [1] and 80 nM in assay [2].

Regarding `OC(CO[C@H]1CCc2ccccc21)CN1CCC(Oc2ccc(F)cc2)CC1` (stereo partly drawn) [Example 235, 1-(((S)-2,3-dihydro-1H-inden-1-yl)oxy)-3-(4-(4-fluorophenoxy)piperidin-1-yl)propan-2-ol], the IC50 in assay [1] is 190 nM; in assay [2], 340 nM.

Consider `OC(CO[C@@H]1CCc2ccccc21)CN1CC[C@@H](Oc2ccc(F)cc2)C1` (stereo partly drawn) [Example 44, 1-(((R)-2,3-dihydro-1H-inden-1-yl)oxy)-3-((R)-3-(4-fluorophenoxy)pyrrolidin-1-yl)propan-2-ol], for which the figures for the IC50 in assay [1] and in assay [2] were 140 nM and 240 nM, respectively.

As to `c1ccc(OC2CCN(CCO[C@H]3CCc4ccccc43)CC2)cc1` [Example 217, (S)-1-(2-((2,3-dihydro-1H-inden-1-yl)oxy)ethyl)-4-phenoxypiperidine], in assay [1], the half-inhibitory concentration (IC50) was found to be 280 nM. In assay [2], the inhibition at 1 µM was 58%.

In the case of `OC(COC1CCCCC1)CN1C[C@H]2C[C@@H](C1)N2c1ccccc1` (stereo partly drawn) [Example 294, 1-(cyclohexyloxy)-3-((1R,5S)-6-phenyl-3,6-diazabicyclo[3.1.1]heptan-3-yl)propan-2-ol], in assay [1], the IC50 amounted to 280 nM. Moreover, the inhibition at 10 µM in assay [2] was 47%.

As to `c1ccc(C2COC3(C2)CN(CC2CCc4ccccc42)C3)cc1` (centres unmarked) [Example 359, 2-((2,3-dihydro-1H-inden-1-yl)methyl)-7-phenyl-5-oxa-2-azaspiro[3.4]octane], the IC50 in assay [1] stood at 550 nM. Besides, in assay [2], the inhibition at 1 µM is 16%.

Regarding `Fc1ccc(OC2CCN(CCC3CCc4ccccc43)CC2)cc1` (centres unmarked) [Example 171, 1-(2-(2,3-dihydro-1H-inden-1-yl)ethyl)-4-(4-fluorophenoxy)piperidine], the half-maximal inhibitory concentration (IC50) in assay [1] was 60 nM; in assay [2], 40 nM.

Regarding `Fc1ccc(O[C@@H]2CCCN(CC3CCc4ccccc43)C2)cc1` (stereo partly drawn) [Example 253, (3R)-1-((2,3-dihydro-1H-inden-1-yl)methyl)-3-(4-fluorophenoxy) piperidine], in assay [1], the IC50 came to 1170 nM. In assay [2], the inhibition at 1 µM amounted to 21%.

`O[C@@H](CO[C@@H]1CCc2ccccc21)CN1CC[C@@H](Oc2ccc(F)cc2)C1` [Example 47, (R)-1-(((R)-2,3-dihydro-1H-inden-1-yl)oxy)-3-((R)-3-(4-fluorophenoxy)pyrrolidin-1-yl)propan-2-ol]: the IC50 in assay [1] worked out at 100 nM; in assay [2], 360 nM.

`O=C1c2ccccc2CCN1CCN1CCC(Oc2ccc(F)cc2)CC1` [Example 200, 2-(2-(4-(4-fluorophenoxy)piperidin-1-yl)ethyl)-3,4-dihydroisoquinolin-1(2H)-one]: the IC50 in assay [1] came to 10 nM. Besides, the inhibition at 10 µM in assay [2] was determined as 73%.

For `c1ccc(O[C@H]2COC3(CCN(C[C@H]4CCc5ccccc54)CC3)C2)cc1` (single isomer, unassigned) [Compound 381], the IC50 was 20 nM in assay [1] and 290 nM in assay [2].

`Fc1ccc(OC2CCN(CC3COc4ccccc43)CC2)cc1` (centres unmarked) [Example 134, 1-((2,3-dihydrobenzofuran-3-yl)methyl)-4-(4-fluorophenoxy)piperidine]: the half-inhibitory concentration (IC50) in assay [1] is 20 nM. In assay [2], the inhibition at 1 µM was determined as 14%.

Take `c1ccc2c(c1)CCC2CN1CCC2(CCc3ncccc3O2)CC1` (centres unmarked) [Example 403, 1-((2,3-dihydro-1H-inden-1-yl)methyl)-3′,4′-dihydrospiro[piperidine-4,2′-pyrano[3,2-b]pyridine]]: the IC50 in assay [1] came to 4 nM. In assay [2], the inhibition at 1 µM is -4%.

On to `O=C1Nc2ccccc2CC12CCN(C[C@H](O)COc1ccccc1)CC2` [Example 445, (S)-1-(2-hydroxy-3-phenoxypropyl)-1′,4′-dihydro-2′H-spiro[piperidine-4,3′-quinolin]-2′-one], for which the IC50 in assay [1] came out at 300 nM. Besides, the inhibition at 1 µM in assay [2] is -2%.

For the molecule `c1ccc2c(c1)COC1(CCN(CC3CCc4ccccc43)CC1)C2` (centres unmarked) [Example 443, l′-((2,3-dihydro-1H-inden-1-yl)methyl)spiro[isochromane-3,4′-piperidine]], the IC50 in assay [1] is 220 nM; in assay [2] it was 3370 nM.

For the molecule `Fc1ccc(OC2COC3(C2)CN(CC2CCc4ccccc42)C3)cc1` (centres unmarked) [Example 368, 2-((2,3-dihydro-1H-inden-1-yl)methyl)-7-(4-fluorophenoxy)-5-oxa-2-azaspiro[3.4]octane], the IC50 in assay [1] came to 150 nM; in assay [2] it was 380 nM.

Turning to `O[C@@H](CCN1CCC(Oc2ccccc2)CC1)c1ccccc1` [Example 228, (S)-3-(4-phenoxypiperidin-1-yl)-1-phenylpropan-1-ol], the IC50 in assay [1] was determined as 140 nM. In addition, in assay [2], the inhibition at 10 µM was 52%.

Take `O=C1c2ccc(F)cc2CN1CCN1CCC(Oc2ccc(F)cc2)CC1` [Example 188, 5-fluoro-2-(2-(4-(4-fluorophenoxy)piperidin-1-yl)ethyl)isoindolin-1-one]: the IC50 in assay [1] was 50 nM. Moreover, the inhibition at 1 µM in assay [2] was 32%.
